# Source: the supplement of paper PMC10307832
# Compound: Cc1ccccc1C(C(=O)NC1CCCCC1)N(C(=O)Cn1ccnc1C)c1cccc(F)c1 [IDH-C35] + COc1cc2c(Oc3ccc(NC(=O)C4(C(=O)Nc5ccc(F)cc5)CC4)cc3F)ccnc2cc1OCCCN1CCOCC1 [Foretinib] (partner 0.25 µM)
# Assay: relative viability (nuclei count vs DMSO), 5 days (fraction); higher = more cells survive
# Conditions: first compound 0.08 µM
# Method in brief: (§1)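 Relative viability was taken as the ratio of nuclei in treated wells to nuclei in vehicle wells. Lung cancer cell lines in 1536-well plates received compounds by pin tool one day after seeding, either one drug alone or a fixed anchor-drug dose plus five library-drug doses (not always all listed) in √10 steps. Nuclei were counted on 4× images after 5 days of treatment, and values are medians of duplicate plates.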
row,Cell Line,relative viability
1,HCC-15,1.07
2,NCI-H1793,0.753
3,PC-14,1.03
4,EKVX,0.832
5,LC-2-ad,0.917
6,NCI-H1944,0.91
7,NCI-H1975,0.938
8,RERF-LC-KJ,0.941
9,PC-3 [JPC-3],1

# Same assay, conditions: first compound 0.253 µM
row,Cell Line,relative viability
1,HCC-15,0.974
2,NCI-H1793,0.81
3,PC-14,0.909
4,EKVX,1.02
5,LC-2-ad,0.938
6,NCI-H1944,0.934
7,NCI-H1975,0.951
8,RERF-LC-KJ,0.853
9,PC-3 [JPC-3],1.01

# Same assay, conditions: first compound 0.8 µM
row,Cell Line,relative viability
1,HCC-15,0.938
2,NCI-H1793,0.724
3,PC-14,0.978
4,EKVX,0.75
5,LC-2-ad,0.904
6,NCI-H1944,0.888
7,NCI-H1975,1.01
8,RERF-LC-KJ,0.968
9,PC-3 [JPC-3],1.05

# Same assay, conditions: first compound 2.53 µM
row,Cell Line,relative viability
1,PC-14,0.988
2,EKVX,0.703
3,NCI-H1944,0.827
4,NCI-H1975,0.974
5,RERF-LC-KJ,0.867
6,PC-3 [JPC-3],1.11

# Same assay, conditions: first compound 8 µM
row,Cell Line,relative viability
1,HCC-15,0.869
2,NCI-H1793,0.624
3,PC-14,0.889
4,EKVX,0.614
5,LC-2-ad,0.908
6,NCI-H1944,0.798
7,NCI-H1975,0.862
8,RERF-LC-KJ,0.888
9,PC-3 [JPC-3],0.982

# Compound: CC1=C(C(=NN1)C)CC2=C(C3=C(S2)N(C(=O)N(C3=O)C)CC(C)C)C(=O)N4C[C@@H](CO4)O + CC1(C)CCC(c2ccc(Cl)cc2)=C(CN2CCN(c3ccc(C(=O)NS(=O)(=O)c4ccc(N[C@H](CCN5CCOCC5)CSc5ccccc5)c(S(=O)(=O)C(F)(F)F)c4)cc3)CC2)C1 [Navitoclax] (partner 0.5 µM)
# Assay: as above
# Conditions: first compound 0.0025 µM
# Method in brief: as §1
row,Cell Line,relative viability
1,HCC-15,0.735
2,NCI-H1793,0.617
3,PC-14,1.02
4,EKVX,1
5,LC-2-ad,0.459
6,NCI-H1944,1.03
7,NCI-H1975,1.13
8,RERF-LC-KJ,1.18
9,PC-3 [JPC-3],0.898

# Same assay, conditions: first compound 0.007906 µM
row,Cell Line,relative viability
1,HCC-15,0.725
2,NCI-H1793,0.415
3,PC-14,1.09
4,EKVX,1.04
5,LC-2-ad,0.461
6,NCI-H1944,1.04
7,NCI-H1975,1.18
8,RERF-LC-KJ,0.99
9,PC-3 [JPC-3],0.795

# Same assay, conditions: first compound 0.025 µM
row,Cell Line,relative viability
1,HCC-15,0.712
2,NCI-H1793,0.411
3,PC-14,1.02
4,EKVX,0.988
5,LC-2-ad,0.463
6,NCI-H1944,1.08
7,NCI-H1975,1.15
8,RERF-LC-KJ,1.01
9,PC-3 [JPC-3],0.83

# Same assay, conditions: first compound 0.07906 µM
row,Cell Line,relative viability
1,HCC-15,0.698
2,NCI-H1793,0.435
3,PC-14,1
4,EKVX,0.907
5,LC-2-ad,0.481
6,NCI-H1944,1.08
7,NCI-H1975,1.19
8,RERF-LC-KJ,0.713
9,PC-3 [JPC-3],0.827

# Same assay, conditions: first compound 0.25 µM
row,Cell Line,relative viability
1,HCC-15,0.675
2,NCI-H1793,0.501
3,PC-14,1.03
4,EKVX,0.933
5,LC-2-ad,0.58
6,NCI-H1944,1.02
7,NCI-H1975,1.21
8,RERF-LC-KJ,0.897
9,PC-3 [JPC-3],0.906

# Compound: Cc1ccccc1C(C(=O)NC1CCCCC1)N(C(=O)Cn1ccnc1C)c1cccc(F)c1 [IDH-C35] + CC1(C)CCC(c2ccc(Cl)cc2)=C(CN2CCN(c3ccc(C(=O)NS(=O)(=O)c4ccc(N[C@H](CCN5CCOCC5)CSc5ccccc5)c(S(=O)(=O)C(F)(F)F)c4)cc3)CC2)C1 [Navitoclax] (partner 0.5 µM)
# Assay: as above
# Conditions: first compound 0.08 µM
# Method in brief: as §1
row,Cell Line,relative viability
1,HCC-15,0.69
2,NCI-H1793,0.549
3,PC-14,1.11
4,EKVX,1.17
5,LC-2-ad,0.544
6,NCI-H1944,1.02
7,NCI-H1975,1.12
8,RERF-LC-KJ,0.901
9,PC-3 [JPC-3],0.789

# Same assay, conditions: first compound 0.253 µM
row,Cell Line,relative viability
1,HCC-15,0.692
2,NCI-H1793,0.446
3,PC-14,1.03
4,EKVX,0.911
5,LC-2-ad,0.589
6,NCI-H1944,1.04
7,NCI-H1975,1.34
8,RERF-LC-KJ,0.735
9,PC-3 [JPC-3],0.718

# Same assay, conditions: first compound 0.8 µM
row,Cell Line,relative viability
1,HCC-15,0.708
2,NCI-H1793,0.444
3,PC-14,0.966
4,EKVX,0.899
5,LC-2-ad,0.467
6,NCI-H1944,0.942
7,NCI-H1975,1.03
8,RERF-LC-KJ,1.02
9,PC-3 [JPC-3],0.778

# Same assay, conditions: first compound 2.53 µM
row,Cell Line,relative viability
1,HCC-15,0.632
2,NCI-H1793,0.456
3,PC-14,1.04
4,EKVX,1.01
5,LC-2-ad,0.427
6,NCI-H1944,1.05
7,NCI-H1975,1.09
8,RERF-LC-KJ,1.25
9,PC-3 [JPC-3],0.858

# Same assay, conditions: first compound 8 µM
row,Cell Line,relative viability
1,HCC-15,0.606
2,NCI-H1793,0.608
3,PC-14,0.98
4,EKVX,0.897
5,LC-2-ad,0.331
6,NCI-H1944,1.04
7,NCI-H1975,1.01
8,RERF-LC-KJ,0.832
9,PC-3 [JPC-3],0.74

# Compound: Cc1ccccc1C(C(=O)NC1CCCCC1)N(C(=O)Cn1ccnc1C)c1cccc(F)c1 [IDH-C35] + Nc1nc2[nH]cc(CCc3ccc(C(=O)N[C@@H](CCC(=O)O)C(=O)O)cc3)c2c(=O)[nH]1 [Pemetrexed] (partner 0.2 µM)
# Assay: as above
# Conditions: first compound 0.08 µM
# Method in brief: as §1
row,Cell Line,relative viability
1,HCC-15,0.206
2,NCI-H1793,0.759
3,PC-14,0.127
4,EKVX,0.443
5,LC-2-ad,0.265
6,NCI-H1944,0.591
7,NCI-H1975,0.284
8,RERF-LC-KJ,0.431
9,PC-3 [JPC-3],1.05

# Same assay, conditions: first compound 0.253 µM
row,Cell Line,relative viability
1,HCC-15,0.235
2,NCI-H1793,0.783
3,PC-14,0.135
4,EKVX,0.332
5,LC-2-ad,0.285
6,NCI-H1944,0.67
7,NCI-H1975,0.284
8,RERF-LC-KJ,0.492
9,PC-3 [JPC-3],1.06

# Same assay, conditions: first compound 0.8 µM
row,Cell Line,relative viability
1,HCC-15,0.223
2,NCI-H1793,0.804
3,PC-14,0.152
4,EKVX,0.395
5,LC-2-ad,0.275
6,NCI-H1944,0.562
7,NCI-H1975,0.281
8,RERF-LC-KJ,0.478
9,PC-3 [JPC-3],1.17

# Same assay, conditions: first compound 2.53 µM
row,Cell Line,relative viability
1,HCC-15,0.226
2,NCI-H1793,1.04
3,PC-14,0.154
4,EKVX,0.369
5,LC-2-ad,0.266
6,NCI-H1944,0.612
7,NCI-H1975,0.288
8,RERF-LC-KJ,0.481
9,PC-3 [JPC-3],1.29

# Same assay, conditions: first compound 8 µM
row,Cell Line,relative viability
1,HCC-15,0.227
2,NCI-H1793,0.854
3,PC-14,0.133
4,EKVX,0.42
5,LC-2-ad,0.278
6,NCI-H1944,0.568
7,NCI-H1975,0.32
8,RERF-LC-KJ,0.523
9,PC-3 [JPC-3],1.21
